Measurements as given in US20070243211A1, “Compositions for regulating metabolic disorders and methods of use thereof” (priority 2005, published 2007).

Assay: Uptake of L-carnitine by patients from oral dosage forms, measured by serum plasma levels
Type: in vivo
Description: Softgel capsules provide improved delivery of the components of the composition of the present invention compared to alternative dosage forms. For example, the uptake of L-carnitine by patients from tablets (e.g., measured by serum plasma levels) is about 10-14%; the uptake of L-carnitine from standard hard capsules is about 15-20%; whereas the uptake of L-carnitine from softgel capsules is about 100%.

uptake of L-carnitine (from softgel capsules): about 100%
uptake of L-carnitine (from standard hard capsules): 15-20%
uptake of L-carnitine (from tablets): 10-14%
SMILES: C[N+](C)(C)C[C@H](O)CC(=O)[O-] [L-carnitine]
